Tested on: HPAE cells
Assay: Transendothelial electrical resistance (TER) measurement after thrombin
Format: cell-based, Human
Conditions: pretreated with 1 uM Go6976 for 30 min, 50 nM thrombin
From the text: FIG. 7. Effects of C1-S96A mutant on MLC phosphorylation, actin stress fiber formation, and loss of endothelial barrier function in response to thrombin. A-B, MLC phosphorylation in response to thrombin in cells transfected with C1 or C1-S96A-GDI-1 mutant. Cells were stimulated with thrombin for indicated time and lysates were Western blotted with anti-phospho-MLC (top) or anti-GFP Abs to determine MLC phosphorylation. […] C, Actin stress fiber formation in response to thrombin in cells transducing GFP-tagged C1 or GFP-tagged C1-S96A mutant. Cells were stimulated with thrombin for 5 min and fixed followed by staining with Alexa-labeled phallodin to determine actin stress fiber formation by confocal imaging. […] TER values are calculated as change in resistance over the value at time zero (n=7). […] After 30 hrs cells were pretreated with 1 uM Go6976 to inhibit PKCα for 30 min and changes in transendothelial electrical resistance (TER) after addition of 50 nM thrombin were determined. TER values are calculated as change in resistance over the value at time zero (n=8). […]
Transendothelial resistance measurement: The time course of endothelial cell retraction in real time, a measure of increased endothelial permeability, was measured according to the procedure described previously (16, 23).

## Cn1c2ccccc2c2c3c(c4c5ccccc5n(CCC#N)c4c21)CNC3=O [G66976]
HPAE cells transducing C1-GDI-1 mutant
  thrombin-induced decrease in TER: significantly reduced
HPAE cells transducing S91A (S96A) GDI-1 mutant
  thrombin-induced decrease in TER: not seen
